Assay results taken from patent US5536749A, “Method for attenuation of sympathetic nervous system activity or onset of migraine by selectively metabolized beta-blocking agents” (SL Pharmaceuticals, Inc., priority 1994, dated 1996).

System: isoproterenolinduced tachycardia
Assay: beta-blocking action (potency, onset and duration) in anesthetized dogs after sublingual administration
Type: in vivo, dog
Experimental: The procedure described by J. E. Shaffer et al. in Drug Development Research 1, 221-232 (1986) was used to assess the potency, onset and duration of beta-blocking action of the compounds of Formula I in anesthetized dogs, except that compositions of Formula I were administered sublingually to the dog instead of by intravenous infusion. Using this method the results shown below were obtained with representative compounds A and B.
^1 Defined as the time from sublingual dosing to the first detectable
decrease in heart rate.
^2 Defined as the percent of reduction in isoproterenolinduced
^3 Defined as the times from sublingual dosing to the peak blockade o
isoproterenol observed. (Isoproterenol dose every ten minuets.)
^4 Defined as the time from peak blockade to the decay of blockade by […]

For `COC(=O)CCc1ccccc1OCC(O)CNC(C)C` (stereo not drawn) [A], which “Peak Blockade (% Inhibition)” value (0.16 mpk (mg/kg), first line of Table 1, percent of reduction in isoproterenol-induced tachycardia) is on record?
The value was 35 ± 6%.

And the “Beta-Blockade Onset” value (0.16 mpk (mg/kg), first line of Table 1, time from dosing to first detectable decrease in heart rate)?
The value was 1 to 2 min.

And the “Time to Peak Blockade” value (0.16 mpk (mg/kg), first line of Table 1, time from dosing to peak blockade of isoproterenol (dosed every ten minutes))?
Its value is 10 min.

And the “Time to 50% Recovery from Blockade” value (0.16 mpk (mg/kg), first line of Table 1, time from peak blockade to decay of blockade by 50% of the peak)?
Its value is 38 min.

And the “Peak Blockade (% Inhibition)” value (0.16 mpk (mg/kg), second line of Table 1, percent of reduction in isoproterenol-induced tachycardia)?
The value was 39 ± 2%.

And the “Beta-Blockade Onset” value (0.16 mpk (mg/kg), second line of Table 1, time from dosing to first detectable decrease in heart rate)?
Its value is 3 to 4 min.

What about the “Time to Peak Blockade” value (0.16 mpk (mg/kg), second line of Table 1, time from dosing to peak blockade of isoproterenol (dosed every ten minutes)) of the same compound?
Its value is 10 min.

What about the “Time to 50% Recovery from Blockade” value (0.16 mpk (mg/kg), second line of Table 1, time from peak blockade to decay of blockade by 50% of the peak) of the same compound?
Its value is 43 min.

And the “Peak Blockade (% Inhibition)” value (0.47 mpk (mg/kg), third line of Table 1, percent of reduction in isoproterenol-induced tachycardia)?
The value was 65 ± 4%.

What about the “Beta-Blockade Onset” value (0.47 mpk (mg/kg), third line of Table 1, time from dosing to first detectable decrease in heart rate) of the same compound?
The value was 2 to 3 min.

And the “Time to Peak Blockade” value (0.47 mpk (mg/kg), third line of Table 1, time from dosing to peak blockade of isoproterenol (dosed every ten minutes))?
Its value is 10 min.

What about the “Time to 50% Recovery from Blockade” value (0.47 mpk (mg/kg), third line of Table 1, time from peak blockade to decay of blockade by 50% of the peak) of the same compound?
The value was 81 min.
